From patent US7998978B2 (Pfizer Inc., priority 2006, dated 2011)

Target: T1, JNK1α1 (Homo sapiens, UniProt P45983)
T1 construct: catalytic domain containing amino acids 1-364 and N-terminal hexahistidine tag; hexahistidine (His6) (N); made in house; host or cells: E. coli BL21 (DE3)
Assay: Coupled spectrophotometric (PK/LDH) JNK1α1 assay: % inhibition and Ki determination
Format: biochemical
Conditions: for Ki: JNK-1
Summary of the method: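 Initial rates were taken from the absorbance decrease at 340 nm at 30° C. Ki was fitted with a tight-binding model over 11 concentrations (top 100 μM); single-point inhibition was tested at 1 or 10 μM.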

T1 sequence (P45983 1-364): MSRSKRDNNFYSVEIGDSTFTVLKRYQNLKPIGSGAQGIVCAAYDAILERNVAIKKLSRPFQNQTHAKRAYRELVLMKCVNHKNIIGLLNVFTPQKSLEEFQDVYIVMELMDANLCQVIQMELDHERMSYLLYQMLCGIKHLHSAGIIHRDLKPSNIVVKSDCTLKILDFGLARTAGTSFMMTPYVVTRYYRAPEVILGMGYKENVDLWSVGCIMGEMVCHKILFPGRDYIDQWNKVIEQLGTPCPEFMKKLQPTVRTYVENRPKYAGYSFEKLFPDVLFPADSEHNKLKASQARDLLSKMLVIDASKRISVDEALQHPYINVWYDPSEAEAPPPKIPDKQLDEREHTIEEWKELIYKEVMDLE

| Compound | Ki [nM] | further results |
| --- | --- | --- |
| O=C(NCC1CCCCO1)c1ccc2cnc(N[C@H]3CC[C@H](O)CC3)nc2c1 (stereo partly drawn) [Example 348, 2-[(trans-4-hydroxycyclohexyl)amino]-N-(tetrahydro-2H-pyran-2-ylmethyl)quinazoline-7-carboxamide] | 978 | – |
| O=C(NCCO)c1ccc2cnc(NC3CCCC3)nc2c1 [Example 427, 2-(cyclopentylamino)-N-(2-hydroxyethyl)quinazoline-7-carboxamide] | – | inhibition at 1 µM (read-out: % Inhibition JNK-1): 21% |
| CNC(=O)[C@H](C)NC(=O)c1cccc2cnc(N[C@H]3CC[C@H](O)CC3)nc12 [Example 516, 2-[(trans-4-hydroxycyclohexyl)amino]-N-[(1S)-1-methyl-2-(methylamino)-2-oxoethyl]quinazoline-8-carboxamide] | – | inhibition at 1 µM (read-out: % Inhibition JNK-1): 26% |
| CC(=O)N1CCC(NC(=O)c2cccc3cnc(N[C@H]4CC[C@H](O)CC4)nc23)CC1 [Example 519, N-(1-acetylpiperidin-4-yl)-2-[(trans-4-hydroxycyclohexyl)amino]quinazoline-8-carboxamide] | – | inhibition at 1 µM (read-out: % Inhibition JNK-1): 9% |
| CCn1ccnc1CNC(=O)c1ccc2cnc(N[C@H]3CC[C@H](O)CC3)nc2c1 [Example 333, N-[(1-ethyl-1H-imidazol-2-yl)methyl]-2-([trans-4-hydroxycyclohexyl)amino]quinazoline-7-carboxamide] | 455 | – |
| CNC(=O)c1cccc2cnc(N[C@H]3CC[C@H](O)CC3)nc12 [Example 114, 2-[(trans-4-hydroxycyclohexyl)amino]-N-methylquinazoline-8-carboxamide] | 1550 | – |
| O=C(NCC1CCOC1)c1cccc2cnc(N[C@H]3CC[C@H](O)CC3)nc12 (stereo partly drawn) [Example 117, 2-[(trans-4-hydroxycyclohexyl)amino]-N-(tetrahydrofuran-3-ylmethyl)quinazoline-8-carboxamide] | 250 | – |
| Cc1ccc2cnc(N[C@H]3CC[C@H](O)CC3)nc2c1OCC(=O)NC1CCOCC1 [Example 210, 2-({2-[(trans-4-hydroxycyclohexyl)amino]-7-methylquinazolin-8-yl}oxy)-N-(tetrahydro-2H-pyran-4-yl)acetamide] | 1710 | – |
| O=C(NCC1(O)CCOc2ccccc21)c1cccc2cnc(N[C@H]3CC[C@H](O)CC3)nc12 (stereo partly drawn) [Example 444, 2-[(trans-4-hydroxycyclohexyl)amino]-N-[(4-hydroxy-3,4-dihydro-2H-chromen-4-yl)methyl]quinazoline-8-carboxamide] | 106 | – |
| Cn1c(=O)c2c(ncn2CC(=O)Nc2cc3cc(-c4cn[nH]c4)ccc3cn2)n(C)c1=O [Example 52, 2-(1,3-dimethyl-2,6-dioxo-1,2,3,6-tetrahydro-7H-purin-7-yl)-N-[6-(1H-pyrazol-4-yl)isoquinolin-3-yl]acetamide] | 15 | – |
| O[C@H]1CC[C@H](Nc2ncc3ccc(OCc4ccccn4)cc3n2)CC1 [Example 153, trans-4-{[7-(pyridin-2-ylmethoxy)quinazolin-2-yl]amino}cyclohexanol] | 185 | – |
| O=C(NC(CO)c1ccccc1Cl)c1ccc2cnc(N[C@H]3CC[C@H](O)CC3)nc2c1 (stereo partly drawn) [Example 99, N-[1-(2-chlorophenyl)-2-hydroxyethyl]-2-[(trans-4-hydroxycyclohexyl)amino]quinazoline-7-carboxamide] | 18 | – |
| O=C(NCC1(O)CCOCC1)c1ccc2cnc(N[C@H]3CC[C@H](O)CC3)nc2c1 [Example 360, 2-[(trans-4-hydroxycyclohexyl)amino]-N-[(4-hydroxytetrahydro-2H-pyran-4-yl)methyl]quinazoline-7-carboxamide] | 1730 | – |
| Cc1cccnc1CC(C)NC(=O)c1cccc2cnc(N[C@H]3CC[C@H](O)CC3)nc12 (stereo partly drawn) [Example 495, 2-[(trans-4-hydroxycyclohexyl)amino]-N-(1-methyl-2-(3-methylpyridin-2-yl)ethyl]quinazoline-8-carboxamide] | – | inhibition at 10 µM (@10 uM, read-out: % Inhibition JNK-1): 76% |
| Cc1sc(-c2ccccc2)nc1CC(=O)Nc1cc2cc(-c3cn[nH]c3)ccc2cn1 [Example 46, 2-(5-methyl-2-phenyl-1,3-thiazol-4-yl)-N-[6-(1H-pyrazol-4-yl)isoquinolin-3-yl]acetamide] | 5 | – |
